Results as given in ChEMBL document CHEMBL1909046, “DrugMatrix in vitro pharmacology data”.
Where a SMILES comes first, the peptide text is derived from it. Bridges are numbered along the chain shown (N, C = ends). [ ]: non-standard residue; d: D form. The star is where a group is joined. Ileψ(thiazoline)Cys = CC[C@H](C)[C@H](N)C1=N[C@H](C(=O)*)CS1; dOrn = NCCC[C@@H](N)C(=O)O

Experiments:
[1] = molecular target: Sodium-dependent noradrenaline transporter (Homo sapiens, UniProt P23975); assay: DRUGMATRIX: Norepinephrine Transporter radioligand binding (ligand: [125I] RTI-55); assay type: cell membranes, MDCK, Membrane; conditions: mdck; Not Active = under 50% inhibition at 10 µM
Sequence of Sodium-dependent noradrenaline transporter (P23975 whole entry): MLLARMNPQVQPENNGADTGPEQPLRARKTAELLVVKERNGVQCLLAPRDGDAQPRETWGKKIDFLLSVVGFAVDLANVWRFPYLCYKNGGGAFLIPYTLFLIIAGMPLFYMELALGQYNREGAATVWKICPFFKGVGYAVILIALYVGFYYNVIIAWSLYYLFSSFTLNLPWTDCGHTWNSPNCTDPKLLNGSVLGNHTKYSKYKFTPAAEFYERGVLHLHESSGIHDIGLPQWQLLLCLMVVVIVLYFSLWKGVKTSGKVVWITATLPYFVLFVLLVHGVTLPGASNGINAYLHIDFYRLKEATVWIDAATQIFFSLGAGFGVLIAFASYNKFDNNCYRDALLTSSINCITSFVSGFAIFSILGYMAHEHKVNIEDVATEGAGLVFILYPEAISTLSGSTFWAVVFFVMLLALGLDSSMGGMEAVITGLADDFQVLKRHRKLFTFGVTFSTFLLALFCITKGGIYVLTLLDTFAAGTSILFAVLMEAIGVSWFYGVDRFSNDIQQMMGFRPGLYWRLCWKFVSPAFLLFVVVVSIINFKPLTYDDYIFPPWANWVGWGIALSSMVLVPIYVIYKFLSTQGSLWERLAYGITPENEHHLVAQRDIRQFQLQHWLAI

[2] = molecular target: 5-hydroxytryptamine receptor 1B (Rattus norvegicus, UniProt P28564); assay type: cell membranes, Wistar, Cerebral cortex, Membrane; conditions: for Ki: read-out: Ki; for all read-outs here: in other assays of this panel Not Active means under 50% inhibition at 10 µM
Sequence of 5-hydroxytryptamine receptor 1B (P28564 whole entry): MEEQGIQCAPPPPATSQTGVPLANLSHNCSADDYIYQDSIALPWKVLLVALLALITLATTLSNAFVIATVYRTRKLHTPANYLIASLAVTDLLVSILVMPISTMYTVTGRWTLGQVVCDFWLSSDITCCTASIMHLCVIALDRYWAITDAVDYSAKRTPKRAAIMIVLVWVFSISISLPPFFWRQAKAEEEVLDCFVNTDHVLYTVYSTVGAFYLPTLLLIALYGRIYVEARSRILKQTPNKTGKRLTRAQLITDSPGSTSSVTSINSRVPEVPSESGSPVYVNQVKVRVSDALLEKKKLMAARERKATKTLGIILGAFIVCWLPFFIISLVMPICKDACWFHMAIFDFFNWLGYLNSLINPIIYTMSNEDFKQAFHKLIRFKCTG

[3] = molecular target: Mitogen-activated protein kinase 1 (Homo sapiens, UniProt P28482); assay: DRUGMATRIX: Protein Serine/Threonine Kinase, ERK2 enzyme inhibition (substrate: Myelin Basic Protein); parameters: species or system Escherichia coli; conditions: Not Active = under 50% inhibition at 10 µM
Sequence of Mitogen-activated protein kinase 1 (P28482 whole entry): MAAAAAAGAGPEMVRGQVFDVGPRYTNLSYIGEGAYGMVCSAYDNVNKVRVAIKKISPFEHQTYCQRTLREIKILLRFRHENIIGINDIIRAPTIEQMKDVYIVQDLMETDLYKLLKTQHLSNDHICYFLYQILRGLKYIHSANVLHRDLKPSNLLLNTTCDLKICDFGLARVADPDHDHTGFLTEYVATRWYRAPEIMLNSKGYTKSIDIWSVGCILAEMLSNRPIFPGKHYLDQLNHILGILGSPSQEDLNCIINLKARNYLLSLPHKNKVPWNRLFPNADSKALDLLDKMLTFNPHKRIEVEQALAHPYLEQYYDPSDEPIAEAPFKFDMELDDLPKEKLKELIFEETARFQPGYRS

[4] = molecular target: T1, Vasoactive intestinal polypeptide receptor 1 (Homo sapiens, UniProt P32241); assay type: cell membranes, Membrane; conditions: ht-29; note: in other assays of this panel Not Active means under 50% inhibition at 10 µM
T1 sequence (P32241 whole entry): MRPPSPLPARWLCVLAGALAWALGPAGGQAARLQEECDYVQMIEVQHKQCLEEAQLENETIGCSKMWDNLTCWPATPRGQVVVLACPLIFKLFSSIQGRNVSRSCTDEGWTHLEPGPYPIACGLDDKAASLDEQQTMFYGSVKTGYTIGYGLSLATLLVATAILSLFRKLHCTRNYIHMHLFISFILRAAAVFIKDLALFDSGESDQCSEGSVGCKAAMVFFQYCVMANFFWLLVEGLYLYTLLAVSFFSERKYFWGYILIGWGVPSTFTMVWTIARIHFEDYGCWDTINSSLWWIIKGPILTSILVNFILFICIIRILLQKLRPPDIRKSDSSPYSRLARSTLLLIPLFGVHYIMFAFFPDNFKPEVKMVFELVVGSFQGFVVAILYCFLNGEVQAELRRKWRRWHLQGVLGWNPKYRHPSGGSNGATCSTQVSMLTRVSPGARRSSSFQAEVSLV

[5] = DRUGMATRIX: GABAA, Flunitrazepam, Central radioligand binding (ligand: [3H] Flunitrazepam); assay type: cell membranes, Rattus norvegicus, Wistar, Brain, Membrane; conditions: Not Active = under 50% inhibition at 10 µM
[6] = DRUGMATRIX: Phosphodiesterase PDE4 enzyme inhibition (substrate: [3H]cAMP + cAMP); conditions: u-937; Not Active = under 50% inhibition at 10 µM
[7] = molecular target: Tyrosine-protein kinase Fyn (Homo sapiens, UniProt P06241); assay: biochemical; assay type: cell-based, Insect cells;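 note: enzymatic inhibition of Fyn kinase activity measured with Poly(Glu:Tyr) as the phosphorylation substrate; in other assays of this panel Not Active means under 50% inhibition at 10 µM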
Sequence of Tyrosine-protein kinase Fyn (P06241 whole entry): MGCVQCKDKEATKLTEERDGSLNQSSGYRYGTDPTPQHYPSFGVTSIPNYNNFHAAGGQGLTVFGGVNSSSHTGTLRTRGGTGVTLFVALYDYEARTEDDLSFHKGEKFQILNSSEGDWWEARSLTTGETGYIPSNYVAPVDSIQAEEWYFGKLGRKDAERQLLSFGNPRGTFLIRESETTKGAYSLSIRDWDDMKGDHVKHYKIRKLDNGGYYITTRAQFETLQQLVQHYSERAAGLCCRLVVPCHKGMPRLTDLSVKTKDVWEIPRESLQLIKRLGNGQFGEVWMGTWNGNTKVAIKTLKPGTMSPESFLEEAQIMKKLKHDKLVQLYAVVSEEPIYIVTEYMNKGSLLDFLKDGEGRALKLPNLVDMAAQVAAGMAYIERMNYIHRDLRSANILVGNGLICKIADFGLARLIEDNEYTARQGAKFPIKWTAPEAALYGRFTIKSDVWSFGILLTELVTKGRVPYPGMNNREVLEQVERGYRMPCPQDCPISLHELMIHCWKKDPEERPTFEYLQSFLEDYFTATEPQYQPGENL

[8] = molecular target: T2, 3-hydroxy-3-methylglutaryl-coenzyme A reductase (Homo sapiens, UniProt P04035); parameters: species or system Escherichia coli;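 note: enzyme inhibition assay of HMG-CoA reductase using radiolabeled [14C]HMG-CoA as substrate; in other assays of this panel Not Active means under 50% inhibition at 10 µM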
T2 sequence (P04035 whole entry): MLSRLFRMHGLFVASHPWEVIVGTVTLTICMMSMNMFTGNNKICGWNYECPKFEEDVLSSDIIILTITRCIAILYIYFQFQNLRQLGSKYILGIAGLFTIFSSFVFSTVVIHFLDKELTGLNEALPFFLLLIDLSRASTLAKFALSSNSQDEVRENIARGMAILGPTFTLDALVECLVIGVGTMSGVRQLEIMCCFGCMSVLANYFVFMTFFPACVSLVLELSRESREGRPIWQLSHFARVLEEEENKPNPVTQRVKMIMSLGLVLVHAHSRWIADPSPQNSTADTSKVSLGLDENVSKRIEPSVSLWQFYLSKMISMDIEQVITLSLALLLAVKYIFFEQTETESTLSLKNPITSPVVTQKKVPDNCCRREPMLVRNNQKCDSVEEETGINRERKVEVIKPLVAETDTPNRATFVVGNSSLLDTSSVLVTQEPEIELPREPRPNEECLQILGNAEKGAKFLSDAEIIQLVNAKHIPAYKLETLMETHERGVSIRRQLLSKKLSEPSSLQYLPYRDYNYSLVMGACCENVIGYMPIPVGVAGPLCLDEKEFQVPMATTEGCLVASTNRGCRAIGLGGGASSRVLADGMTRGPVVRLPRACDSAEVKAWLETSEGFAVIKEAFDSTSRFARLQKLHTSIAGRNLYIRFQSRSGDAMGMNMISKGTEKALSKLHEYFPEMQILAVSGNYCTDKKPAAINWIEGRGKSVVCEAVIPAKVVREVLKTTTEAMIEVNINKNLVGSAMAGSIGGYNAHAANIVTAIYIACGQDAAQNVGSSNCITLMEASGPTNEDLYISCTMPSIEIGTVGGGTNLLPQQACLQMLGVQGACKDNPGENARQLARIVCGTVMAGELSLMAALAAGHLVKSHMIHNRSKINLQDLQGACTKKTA

Insulin receptor = Insulin receptor (Rattus norvegicus, UniProt P15127); assay type: cell membranes, Wistar, Liver, Membrane; note: in other assays of this panel Not Active means under 50% inhibition at 10 µM
Sequence of Insulin receptor (P15127 27-759 limits assumed): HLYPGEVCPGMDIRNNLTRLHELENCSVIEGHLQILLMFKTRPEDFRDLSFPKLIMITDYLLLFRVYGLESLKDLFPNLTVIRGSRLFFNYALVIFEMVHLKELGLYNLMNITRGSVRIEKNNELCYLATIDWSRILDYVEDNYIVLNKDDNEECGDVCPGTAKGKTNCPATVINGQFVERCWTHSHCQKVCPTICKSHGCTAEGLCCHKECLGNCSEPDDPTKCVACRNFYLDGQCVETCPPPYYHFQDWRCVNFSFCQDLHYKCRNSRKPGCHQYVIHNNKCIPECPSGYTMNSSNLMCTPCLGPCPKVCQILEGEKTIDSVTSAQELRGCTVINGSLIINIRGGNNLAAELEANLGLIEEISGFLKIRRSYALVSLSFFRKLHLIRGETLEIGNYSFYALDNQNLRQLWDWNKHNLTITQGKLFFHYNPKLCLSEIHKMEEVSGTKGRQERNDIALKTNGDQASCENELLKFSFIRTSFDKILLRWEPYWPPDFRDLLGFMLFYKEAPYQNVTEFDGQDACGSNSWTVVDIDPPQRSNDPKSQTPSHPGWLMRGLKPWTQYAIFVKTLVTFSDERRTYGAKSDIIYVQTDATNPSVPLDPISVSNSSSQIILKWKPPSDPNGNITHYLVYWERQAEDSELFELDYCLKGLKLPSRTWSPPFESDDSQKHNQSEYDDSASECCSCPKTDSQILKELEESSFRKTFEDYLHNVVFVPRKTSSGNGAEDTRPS
Sequence of Insulin receptor (P15127 764-1383 limits assumed): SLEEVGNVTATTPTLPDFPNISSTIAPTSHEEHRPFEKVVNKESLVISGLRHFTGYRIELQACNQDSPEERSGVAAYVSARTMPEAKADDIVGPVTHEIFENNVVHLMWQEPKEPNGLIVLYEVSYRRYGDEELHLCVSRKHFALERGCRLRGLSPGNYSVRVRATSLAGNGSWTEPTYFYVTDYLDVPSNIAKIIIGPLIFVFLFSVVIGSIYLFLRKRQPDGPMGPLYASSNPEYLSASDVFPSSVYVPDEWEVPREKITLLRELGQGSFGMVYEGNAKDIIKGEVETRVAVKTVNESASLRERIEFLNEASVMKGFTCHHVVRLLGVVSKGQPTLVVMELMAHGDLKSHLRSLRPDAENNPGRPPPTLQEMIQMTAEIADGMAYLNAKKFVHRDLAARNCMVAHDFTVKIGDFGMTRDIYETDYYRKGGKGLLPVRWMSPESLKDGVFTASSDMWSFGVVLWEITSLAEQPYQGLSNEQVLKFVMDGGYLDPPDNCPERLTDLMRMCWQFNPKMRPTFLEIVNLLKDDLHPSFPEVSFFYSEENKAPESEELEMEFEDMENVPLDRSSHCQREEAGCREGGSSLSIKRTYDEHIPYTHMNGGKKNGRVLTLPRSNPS

[9] = DRUGMATRIX: Purinergic P2X radioligand binding (ligand: [3H] alpha, beta-Methylene-ATP); assay type: cell membranes, Oryctolagus cuniculus, New Zealand albino, Urinary bladder, Membrane; conditions: Not Active = under 50% inhibition at 10 µM
Progesterone receptor = molecular target: T3, Progesterone receptor (Bos taurus, UniProt Q690N0); assay: DRUGMATRIX: Progesterone radioligand binding (ligand: [3H] R-5020); assay type: tissue-based, Uterus; conditions: Not Active = under 50% inhibition at 10 µM
T3 sequence (Q690N0 whole entry): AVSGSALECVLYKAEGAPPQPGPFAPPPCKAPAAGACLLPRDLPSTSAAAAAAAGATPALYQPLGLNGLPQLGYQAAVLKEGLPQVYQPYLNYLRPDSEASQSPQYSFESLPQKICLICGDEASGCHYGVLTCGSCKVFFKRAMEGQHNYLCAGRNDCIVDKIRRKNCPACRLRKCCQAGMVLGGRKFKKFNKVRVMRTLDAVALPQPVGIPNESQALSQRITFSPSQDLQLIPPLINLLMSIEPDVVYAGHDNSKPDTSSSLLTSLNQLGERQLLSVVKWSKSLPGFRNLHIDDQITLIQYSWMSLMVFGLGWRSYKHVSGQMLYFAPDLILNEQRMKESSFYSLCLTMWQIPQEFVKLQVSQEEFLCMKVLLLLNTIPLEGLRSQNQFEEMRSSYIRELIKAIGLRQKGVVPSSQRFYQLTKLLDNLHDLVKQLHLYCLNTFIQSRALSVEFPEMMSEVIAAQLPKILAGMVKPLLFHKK

[10] = molecular target: Beta-2 adrenergic receptor (Homo sapiens, UniProt P07550); assay: DRUGMATRIX: Adrenergic beta2 radioligand binding (ligand: [3H] CGP-12177); assay type: cell membranes, Membrane; conditions: cho; Not Active = under 50% inhibition at 10 µM
Sequence of Beta-2 adrenergic receptor (P07550 whole entry): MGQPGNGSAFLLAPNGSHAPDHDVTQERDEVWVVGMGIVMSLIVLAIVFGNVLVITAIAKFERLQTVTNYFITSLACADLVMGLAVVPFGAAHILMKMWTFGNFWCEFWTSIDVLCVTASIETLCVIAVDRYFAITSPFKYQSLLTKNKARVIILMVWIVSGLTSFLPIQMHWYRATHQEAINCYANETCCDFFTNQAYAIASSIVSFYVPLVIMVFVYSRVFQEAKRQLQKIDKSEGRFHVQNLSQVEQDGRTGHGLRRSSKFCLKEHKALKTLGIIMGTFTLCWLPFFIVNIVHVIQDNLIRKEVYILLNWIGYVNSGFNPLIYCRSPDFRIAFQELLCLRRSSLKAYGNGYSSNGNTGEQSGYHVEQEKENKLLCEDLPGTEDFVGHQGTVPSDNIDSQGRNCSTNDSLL

Row | SMILES | IC50 [1] | IC50 [2] | IC50 [3] | IC50 [4] | IC50 [5] | Ki [5] | IC50 [6] | Ki [6] | IC50 ([7]; insect cells) | IC50 [8] | IC50 (Insulin receptor) | IC50 [9] | Ki [9] | IC50 (Progesterone receptor) | IC50 [10] | IC50 ([8]; read-out: IC50) | IC50 ([2]; read-out: IC50) | Ki [2] | IC50 ([7]; read-out: IC50)
1 | CC(C)NC[C@H](O)COc1cccc2[nH]ccc12 | Not Active | Not Active | Not Active | Not Active | Not Active | Not Active | Not Active | Not Active | Not Active | Not Active | Not Active | Not Active | Not Active | – | – | – | – | – | –
2 | CC[C@H](C)[C@H](N)C1=N[C@H](C(=O)N[C@@H](CC(C)C)C(=O)N[C@H](CCC(=O)O)C(=O)N[C@H](C(=O)N[C@H]2CCCCNC(=O)[C@H](CC(N)=O)NC(=O)[C@@H](CC(=O)O)NC(=O)[C@H](Cc3cnc[nH]3)NC(=O)[C@@H](Cc3ccccc3)NC(=O)[C@H]([C@@H](C)CC)NC(=O)[C@@H](CCCN)NC2=O)[C@@H](C)CC)CS1 [BACITRACIN] ({Ileψ(thiazoline)Cys}-L[dE]IK[dOrn]I[dF]H[dD]N; lactam 4-C) | Not Active | – | Not Active | Not Active | Not Active | Not Active | Not Active | Not Active | Not Active | Not Active | Not Active | Not Active | Not Active | Not Active | Not Active | – | – | – | –
3 | COCc1c(C(C)C)nc(C(C)C)c(/C=C/[C@@H](O)C[C@@H](O)CC(=O)O)c1-c1ccc(F)cc1 [CERIVASTATIN] | – | Not Active | Not Active | Not Active | Not Active | Not Active | Not Active | Not Active | Not Active | – | Not Active | Not Active | Not Active | Not Active | Not Active | 0.085 nM | – | – | –
4 | CN(C)CCCC1(c2ccc(F)cc2)OCc2cc(C#N)ccc21 (stereo unspecified) [CITALOPRAM] | – | Not Active | Not Active | Not Active | Not Active | Not Active | Not Active | Not Active | Not Active | Not Active | Not Active | Not Active | Not Active | Not Active | Not Active | – | – | – | –
5 | CN1C[C@H](C(=O)N[C@]2(C)O[C@@]3(O)[C@@H]4CCCN4C(=O)[C@H](Cc4ccccc4)N3C2=O)C=C2c3cccc4[nH]cc(c34)C[C@H]21 [ERGOTAMINE] | Not Active | – | Not Active | Not Active | Not Active | Not Active | Not Active | Not Active | – | Not Active | Not Active | Not Active | Not Active | Not Active | – | – | 0.201 nM | 0.091 nM | 3.16 µM
6 | Nc1nc2c(ncn2COC(CO)CO)c(=O)[nH]1 [GANCICLOVIR] | – | Not Active | Not Active | Not Active | Not Active | Not Active | Not Active | Not Active | Not Active | Not Active | Not Active | Not Active | Not Active | Not Active | Not Active | – | – | – | –
7 | CNCCC=C1c2ccccc2CCc2ccccc21 [NORTRIPTYLINE] | – | – | Not Active | Not Active | Not Active | Not Active | Not Active | Not Active | Not Active | Not Active | Not Active | Not Active | Not Active | Not Active | Not Active | – | 3200 nM | 1450 nM | –
8 | CC1COc2c(N3CCN(C)CC3)c(F)cc3c(=O)c(C(=O)O)cn1c23 (stereo unspecified) [OFLOXACIN] | – | Not Active | Not Active | Not Active | Not Active | Not Active | Not Active | Not Active | Not Active | Not Active | Not Active | Not Active | Not Active | Not Active | Not Active | – | – | – | –
9 | Fc1ccc([C@@H]2CCNC[C@H]2COc2ccc3c(c2)OCO3)cc1 [PAROXETINE] | – | Not Active | Not Active | Not Active | Not Active | Not Active | Not Active | Not Active | Not Active | Not Active | Not Active | Not Active | Not Active | Not Active | Not Active | – | – | – | –
10 | COc1ccc(CN(CCN(C)C)c2ccccn2)cc1 [PYRILAMINE] | – | Not Active | Not Active | Not Active | Not Active | Not Active | Not Active | Not Active | Not Active | Not Active | Not Active | Not Active | Not Active | Not Active | Not Active | – | – | – | –
